The source of these data is ChEMBL document CHEMBL1146330, “Acyclic, orally bioavailable ketone-based cathepsin K inhibitors” (Bioorg Med Chem Lett, 2007).

The target of data set [1] is T1, Cathepsin K (Homo sapiens, UniProt P43235).
T1 sequence (P43235 whole entry): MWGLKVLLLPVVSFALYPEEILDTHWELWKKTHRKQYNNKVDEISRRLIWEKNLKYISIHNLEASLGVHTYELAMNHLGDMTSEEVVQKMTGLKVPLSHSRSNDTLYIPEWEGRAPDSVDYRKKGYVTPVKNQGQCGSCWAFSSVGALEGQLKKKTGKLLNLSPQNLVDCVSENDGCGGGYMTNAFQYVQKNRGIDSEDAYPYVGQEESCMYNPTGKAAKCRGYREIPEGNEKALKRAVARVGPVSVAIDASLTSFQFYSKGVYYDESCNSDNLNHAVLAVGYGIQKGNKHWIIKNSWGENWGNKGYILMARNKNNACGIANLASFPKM
The experiment in a line: Inhibition of human recombinant cathepsin K.

Data set [2] deals with Cathepsin B (Homo sapiens, UniProt P07858). The experiment in a line: Inhibition of human recombinant cathepsin B.
Data set [3] can be described thus: Inhibition of human recombinant cathepsin L.
The target of data set [4] is Cathepsin S (Homo sapiens, UniProt P25774). In words: Inhibition of human recombinant cathepsin S.
Data set [5] in a line: Apparent permeability across MDCK cells. Type of data set: ADME, cell-based, Canis lupus familiaris. The note with it: dog.
Data set [6] can be described thus: Solubility in fasted state simulated intestinal fluid at pH 6.8. In kind it is physicochemical.
Data set [7] is described as follows: Terminal elimination half life in iv dosed Han Wistar rat. In kind it is ADME, organism-based. The note with it: in vivo.
Data set [8] is described as follows: Total clearance in Han Wistar rat. In kind it is ADME, organism-based. The note with it: in vivo.
The nature of data set [9]: Volume of distribution at steady state in Han Wistar rat. The note with it: in vivo, read-out: Vdss. In kind it is ADME, organism-based.
Data set [10] can be described thus: Oral bioavailability in Han Wistar rat. The settings on record: in vivo. Type of data set: ADME, organism-based.
The species entered for data set [11] is Homo sapiens. In words: Selectivity for human recombinant cathepsin K over human recombinant cathepsin L.

pIC50: −log10 of the molar value. Values after ≈ are worked out from the molar mass of the structure shown.

Chain of Cathepsin S (P25774 whole entry): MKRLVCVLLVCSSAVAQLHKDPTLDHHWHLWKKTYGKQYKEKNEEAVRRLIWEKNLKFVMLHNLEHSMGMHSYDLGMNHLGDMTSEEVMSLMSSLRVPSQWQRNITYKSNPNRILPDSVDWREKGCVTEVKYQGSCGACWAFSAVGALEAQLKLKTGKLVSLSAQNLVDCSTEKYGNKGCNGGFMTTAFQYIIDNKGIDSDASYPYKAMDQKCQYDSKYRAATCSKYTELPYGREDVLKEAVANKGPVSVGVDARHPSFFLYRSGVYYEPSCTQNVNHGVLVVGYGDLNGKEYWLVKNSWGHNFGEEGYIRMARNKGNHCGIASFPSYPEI

With `CCCC[C@H](NC(=O)O[C@H](Cn1cnc(-c2ccc(C(F)(F)F)cc2)c1)C(C)(C)C)C(=O)CNS(=O)(=O)c1ccccn1`, the pIC50 in data set [1] was 8.19; in data set [2], 6.89; in data set [3] it was 5.96; in data set [4] it was 8.00. For the same molecule, in data set [5], the Papp turned out to be 19 ×10⁻⁶ cm/s. In data set [6], this molecule returned a solubility of 40 µg/mL (≈ 64.1 µM). Further, the half-life in data set [7] turned out to be 67 min. In addition, the clearance in [8] came out at 47 mL/min/kg. The Vd in data set [9] was 1.6 L/kg. Also, the bioavailability in [10] worked out at 22%. For the same molecule, the Ratio IC50 in [11] was above 100.
As to `C[C@H](NC(=O)O[C@H](Cn1ccc(-c2ccc(C(F)(F)F)cc2)n1)C(C)(C)C)C(=O)CNS(=O)(=O)c1ccccn1`, the pIC50 was 7.74 in data set [1], 6.51 in data set [2], below 6.60 in data set [3] and 7.19 in data set [4]. Also, the Papp in data set [5] was 30 ×10⁻⁶ cm/s. The same molecule displayed a solubility in data set [6] of 97 µg/mL (≈ 167 µM). Moreover, in [7], the half-life came to 32 min. Also, the clearance in data set [8] amounted to 82 mL/min/kg. The Vd in data set [9] was 1.8 L/kg. In data set [10], this molecule had a bioavailability of 27%.
As for `CCCC[C@H](NC(=O)O[C@H](Cn1ccc(-c2ccncc2)n1)C(C)(C)C)C(=O)CNS(=O)(=O)c1ccccn1`, the pIC50 in data set [1] is 8.42; in data set [2] it was 7.89; in data set [3], 7.42; in data set [4] it was 7.96. Moreover, the Papp in data set [5] is 6.8 ×10⁻⁶ cm/s. Moreover, the concentration in solution in [6] (solubility) came to 60 µg/mL (≈ 108 µM). This molecule gave a half-life in [7] of 120 min. Further, in data set [8], the clearance is 16 mL/min/kg. In data set [9], the Vd came to 1.7 L/kg. In addition, the bioavailability in [10] came to 100%.
Turning to `CCCC[C@H](NC(=O)O[C@H](Cn1ccc(-c2ccc(C(F)(F)F)cc2)n1)C(C)(C)C)C(=O)CNc1cccc(F)n1`, the pIC50 in data set [1] was 8.68; in data set [2], 7.17; in data set [3], below 6.60; in data set [4], 7.72. Also, the Ratio IC50 in [11] is above 100.
On to `CCCC[C@H](NC(=O)O[C@H](Cn1ccc(-c2ccc(C(F)(F)F)cc2)n1)C(C)(C)C)C(=O)C(=O)Nc1ccn[nH]1`, for which the pIC50 is 10.14 in data set [1], 7.70 in data set [2], 8.06 in data set [3] and 9.68 in [4]. Moreover, in data set [5], the Papp turned out to be 9.1 ×10⁻⁶ cm/s. In [6], this molecule yielded a solubility of 110 µg/mL (≈ 196 µM). This molecule registered a half-life in data set [7] of 320 min. The Vd in data set [9] came to 1.6 L/kg. The same molecule gave a bioavailability in data set [10] of 42%.
For the molecule `CCCC[C@H](NC(=O)O[C@H](Cn1ccc(-c2cccnc2)n1)C(C)(C)C)C(=O)CNS(=O)(=O)c1ccccn1`, the pIC50 in data set [1] was 8.26; in data set [2], 7.10; in data set [3], 7.00; in data set [4] it was 7.82.
In the case of `C[C@H](NC(=O)O[C@H](Cn1ccc(C(F)(F)F)n1)C(C)(C)C)C(=O)CNS(=O)(=O)c1ccccn1`, in [1], the pIC50 was 6.52.
As for `CCCC[C@H](NC(=O)O[C@H](Cn1ccc(C(F)(F)F)n1)C(C)(C)C)C(=O)CNS(=O)(=O)c1ccccn1`, the pIC50 in data set [1] is 7.49. In addition, the Papp in data set [5] was 34 ×10⁻⁶ cm/s. The same molecule returned a half-life in [7] of 24 min. This molecule returned a clearance in data set [8] of 21 mL/min/kg. For the same molecule, the Vd in data set [9] is 0.46 L/kg. In [10], this molecule returned a bioavailability of 20%.
Regarding `CC(C)C[C@H](NC(=O)c1cc2ccccc2o1)C(=O)N[C@@H](C)C(=O)CNS(=O)(=O)c1ccccn1`, the pIC50 in data set [1] was 8.12; in data set [2], 7.23; in data set [4] it was 7.70. In data set [7], this molecule displayed a half-life of 33 min.
In the case of `C[C@H](NC(=O)O[C@H](Cn1cnc2cc(Cl)c(Cl)cc21)C(C)(C)C)C(=O)CNS(=O)(=O)c1ccccn1`, the pIC50 in [1] was 8.85; in data set [2], 7.15; in [3], 7.42; in [4] it was 8.10.
Regarding `CC(C)(C)[C@@H](Cn1ccc(-c2ccc(C(F)(F)F)cc2)n1)OC(=O)NCC(=O)CNS(=O)(=O)c1ccccn1`, the pIC50 in data set [1] is 7.19.
The same measure, in the same setting: the value for `CCCC[C@H](NC(=O)O[C@H](Cn1ccc(-c2ccc(C(F)(F)F)cc2)n1)C(C)(C)C)C(=O)CNC(=O)N1CCOCC1` was below 6.60.
For the molecule `CCCC[C@H](NC(=O)O[C@H](Cn1ccc(-c2ccc(C(F)(F)F)cc2)n1)C(C)(C)C)C(=O)CNS(=O)(=O)c1ccccn1`, the pIC50 in data set [1] is 8.40; in data set [2], 6.77; in data set [3], below 6.60; in data set [4], 7.46. The apparent permeability (Papp) in data set [5] worked out at 16 ×10⁻⁶ cm/s. In data set [6], this molecule returned a solubility of 41 µg/mL (≈ 65.7 µM). In [7], this molecule registered a half-life of 120 min. The molecule further returned a clearance in data set [8] of 26 mL/min/kg. In data set [9], the Vd came out at 1.8 L/kg. This molecule yielded a bioavailability in data set [10] of 21%.
With `CCCC[C@H](NC(=O)O[C@H](Cn1cnc2cc(Cl)c(Cl)cc21)C(C)(C)C)C(=O)CNS(=O)(=O)c1ccccn1`, the negative-log IC50 (pIC50) was 8.49 in data set [1], 7.40 in data set [2], 7.80 in [3] and 8.00 in data set [4]. Besides, in [5], the Papp amounted to 15 ×10⁻⁶ cm/s. Further, the concentration in solution in data set [6] (solubility) came to 28 µg/mL (≈ 46.8 µM). The molecule further displayed a half-life in data set [7] of 46 min. Moreover, in data set [8], the clearance came to 31 mL/min/kg. In addition, in [9], the Vd is 1.3 L/kg. In data set [10], this molecule registered a bioavailability of 32%.
In the case of `CCCC[C@H](NC(=O)O[C@H](Cn1cc(-c2ccc(C(F)(F)F)cc2)cn1)C(C)(C)C)C(=O)CNS(=O)(=O)c1ccccn1`, the pIC50 in [1] is 8.12; in data set [2], 7.14; in data set [3] it was 5.15; in [4], 7.59. Besides, in data set [11], the Ratio IC50 is above 100.

The pIC50 is the IC50 on a negative log10 scale, so that one unit is a factor of ten. By Papp is commonly meant a coefficient for how fast a substance crosses the barrier. Usually solubility stands for how much of the substance goes into solution per volume. A lower solubility goes with little dissolved substance. As a reminder, the half-life is the time in which the quantity being followed falls by half. One may read the clearance as a measure of how efficiently the substance is removed, as volume per time. Higher therefore signals efficient removal. A word on the bioavailability: it is dose-corrected exposure relative to a reference, in per cent. The low end stands for little systemic uptake, the high end for much systemic uptake.
